A short description of series [1]: In vitro stability of Compound KC-2 to household chemicals and enzyme preparations. To be noted: vodka, baking soda, WINDEX, vinegar (RT or 80° C.), GNC Super Digestive, tenderizer, subtilisn (RT); 1 or 24 hr. In kind it is physicochemical.
Description: Samples were incubated as described and aliquots removed at 1 hr and 24 hr and stabilized by adding each to a solution of 50% or 100% of 85% phosphoric acid solution to achieve a final pH of less than or equal to pH 4. The stabilized aliquots were then diluted 4- to 6-fold with water, vortex-mixed and applied to HPLC.
The conditions of series [2]: male, Sprague Dawley, rat, in vivo.
Series [3] has as its target T1, human μ-opioid receptor (Homo sapiens, UniProt P35372). The series can be described thus: In vitro human μ-opioid receptor binding assay.
Series [4] is described as follows: Pharmacokinetics of oxycodone prodrug Compound KC-2 or oxycodone following PO administration to rats. The following applies: rat, KC-2 20 mg/kg vs oxycodone 10 mg/kg. In kind it is in vivo.
Series [5] deals with T1, human μ-opioid receptor. Put plainly: cell-based. The arrangement: expressed in transfected cells; host or cells: CHO. The following applies: agonist response, cAMP (HTRF); recombinant CHO cells; 37° C., 10 min; three separate experiments. Here is the method: This Example measures the ability of certain compounds of the present disclosure to effect an agonist response when exposed to recombinant human μ-opioid receptor expressed in CHO cells.
A. and Uhl, G. R. (1994). […] The control reaction included 1 μM DAMGO. The reaction mixtures were incubated at 37° C. for 10 min, and the reaction product was cyclic AMP (cAMP). The samples were submitted to homogeneous time resolved fluorescence (HTRF®). EC50 values (concentration producing a half-maximal specific response) were determined by non-linear regression fit using the Hillplot software.

Series [6] deals with T2, trypsin from bovine pancreas (Bos taurus, UniProt P00760).
T2 sequence (P00760 24-246): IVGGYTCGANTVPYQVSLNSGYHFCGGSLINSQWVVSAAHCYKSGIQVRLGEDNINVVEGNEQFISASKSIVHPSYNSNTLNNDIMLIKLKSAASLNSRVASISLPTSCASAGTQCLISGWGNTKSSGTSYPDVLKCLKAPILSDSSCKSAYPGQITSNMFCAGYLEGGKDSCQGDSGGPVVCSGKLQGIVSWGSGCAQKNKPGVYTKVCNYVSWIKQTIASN
Put plainly: In vitro trypsin-mediated release of oxycodone from Compound KC-2, without or with Compound 109. The series is classed as biochemical. Further details: purchased Sigma-Aldrich T8003; host or cells: bovine pancreas. To be noted: 0.761 mM KC-2; 0.0228 mg/mL trypsin; 37° C.; no trypsin inhibitor. The text has this: (§1) The square symbols indicate the disappearance of Compound KC-2, and the triangle symbols depict the appearance of oxycodone, over time under the conditions described in this Example.

Series [7] deals with T3, trypsin (Bos taurus, UniProt P00760).
T3 sequence (P00760 24-246): T2 sequence (P00760 24-246)
Described as above. The arrangement: purchased Sigma-Aldrich T8003; host or cells: bovine pancreas. In kind it is biochemical, bovine. To be noted: bovine, trypsin from bovine pancreas, read-out: Pro-drug trypsin half-life, h Average ± sd (converted).
Description: as §1

Read-outs that look alike come from different tables or passages of the source.

T1 sequence (P35372 whole entry): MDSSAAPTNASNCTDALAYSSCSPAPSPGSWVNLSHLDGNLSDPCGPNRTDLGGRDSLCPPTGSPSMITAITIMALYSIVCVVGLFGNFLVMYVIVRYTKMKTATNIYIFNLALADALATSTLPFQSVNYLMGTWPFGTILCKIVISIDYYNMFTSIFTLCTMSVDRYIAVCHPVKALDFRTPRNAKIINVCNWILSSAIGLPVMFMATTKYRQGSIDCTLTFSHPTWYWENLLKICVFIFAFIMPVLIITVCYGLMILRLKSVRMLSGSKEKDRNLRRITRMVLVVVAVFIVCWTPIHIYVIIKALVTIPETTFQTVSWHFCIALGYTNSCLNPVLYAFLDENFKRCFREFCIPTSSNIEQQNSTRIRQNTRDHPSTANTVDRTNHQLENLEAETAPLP

For `COc1ccc2c3c1O[C@H]1C(OC(=O)N(C)CCNC(=O)[C@H](CCCNC(=N)N)NC(C)=O)=CC[C@@]4(O)[C@@H](C2)N(C)CC[C@]314` [Compound KC-2, Oxycodone 6-(N-methyl-N-(2-N′-acetylarginylamino))ethylcarbamate], the conversion to oxycodone entry in series [1] was “less than 10%”. For the same compound, in series [2], the “Compound conc. in CSF” value is given as 61.9 ng/mL, the “Compound conc. in Plasma” value is reported as 27,200 ng/mL and the Plasma/CSF partitioning coefficient came out at 439. In series [3], this compound came in with an IC50 of 22 nM. The “oxycodone plasma concentrations compared to administration of oxycodone” value in series [4] was “suppressed Cmax and delayed Tmax compared to administration of oxycodone”. For the same compound, the EC50 in series [5] worked out at 490 nM. In series [6], the “Rate of oxycodone formation, umols/h/umol trypsin Average ± sd” value was 37.4 ± 0.9 umols/h/umol trypsin. Further, the half-life at 0.761 mM in series [7] (pH 8, with Compound 109 (trypsin inhibitor) 2 µM ([…])) is 116 ± 118 h. Also, the half-life at 0.761 mM in series [7] (pH 8, 0.761 mM KC-2, 0.0228 mg/mL trypsin, 37° C., no trypsin inhibitor) is 5.64 ± 0.26 h.
